The text below walks through data of ChEMBL document CHEMBL1140010, “Discovery of novel prostaglandin analogs of PGE2 as potent and selective EP2 and EP4 receptor agonists” (Bioorg Med Chem Lett, 2007).

Series [1] concerns the target T1, Prostaglandin E2 receptor EP3 subtype (Homo sapiens, UniProt P43115).
T1 sequence (P43115 whole entry): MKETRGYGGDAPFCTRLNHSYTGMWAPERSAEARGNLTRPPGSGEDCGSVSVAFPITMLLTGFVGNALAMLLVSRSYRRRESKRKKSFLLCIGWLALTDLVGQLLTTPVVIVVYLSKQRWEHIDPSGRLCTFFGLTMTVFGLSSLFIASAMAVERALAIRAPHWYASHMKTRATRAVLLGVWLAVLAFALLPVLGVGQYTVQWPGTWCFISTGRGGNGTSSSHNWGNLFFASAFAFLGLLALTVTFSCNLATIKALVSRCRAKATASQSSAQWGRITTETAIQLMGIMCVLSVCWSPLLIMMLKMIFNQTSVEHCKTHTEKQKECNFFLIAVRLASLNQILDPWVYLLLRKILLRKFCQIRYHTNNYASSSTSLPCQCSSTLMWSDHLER
In words: Displacement of [3H]PGE2 from human EP3 receptor expressed in HEK293 cells. The class given is cell-based. (Loss of bound radioactivity is the signal in a displacement assay; it reports binding, not function.)

Series [2] addresses T2, Prostaglandin E2 receptor EP4 subtype (Homo sapiens, UniProt P35408). The experiment in a line: Displacement of [3H]PGE2 from human EP4 receptor expressed in HEK293 cells. The class given is cell-based.
The target of series [3] is T3, Prostaglandin E2 receptor EP1 subtype (Homo sapiens, UniProt P34995).
T3 sequence (P34995 whole entry): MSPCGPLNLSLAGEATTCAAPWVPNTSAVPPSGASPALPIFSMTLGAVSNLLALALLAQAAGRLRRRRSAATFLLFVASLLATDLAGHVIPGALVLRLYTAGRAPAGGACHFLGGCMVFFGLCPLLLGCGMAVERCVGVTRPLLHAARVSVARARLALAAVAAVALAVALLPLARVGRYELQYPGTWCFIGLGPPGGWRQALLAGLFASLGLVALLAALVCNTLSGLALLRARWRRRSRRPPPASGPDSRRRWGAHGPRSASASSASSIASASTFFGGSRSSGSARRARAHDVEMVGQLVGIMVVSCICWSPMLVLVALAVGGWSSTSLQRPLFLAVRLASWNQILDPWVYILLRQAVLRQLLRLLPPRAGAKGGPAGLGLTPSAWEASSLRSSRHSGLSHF
The experiment in a line: Displacement of [3H]PGE2 from human EP1 receptor expressed in HEK293 cells. The class given is cell-based.

For series [4], the target named is T4, Prostaglandin E2 receptor EP2 subtype (Homo sapiens, UniProt P43116). In words: Agonist activity at EP2 receptor expressed in HEK293 cells assessed as cAMP accumulation. The class given is functional, cell-based. On the technique in general: Changes in cAMP serve as a functional read-out for many G protein-coupled receptors.
T4 sequence (P43116 whole entry): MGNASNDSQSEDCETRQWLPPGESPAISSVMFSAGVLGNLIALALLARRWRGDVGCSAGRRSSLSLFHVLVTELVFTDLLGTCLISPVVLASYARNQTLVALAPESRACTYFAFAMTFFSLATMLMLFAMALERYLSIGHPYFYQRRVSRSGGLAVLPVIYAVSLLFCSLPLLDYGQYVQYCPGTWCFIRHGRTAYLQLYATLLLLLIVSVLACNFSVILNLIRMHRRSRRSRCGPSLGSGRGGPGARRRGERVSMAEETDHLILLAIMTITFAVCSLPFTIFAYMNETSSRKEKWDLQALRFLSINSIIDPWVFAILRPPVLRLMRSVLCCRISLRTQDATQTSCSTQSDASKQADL
In series [5] the target is T2, Prostaglandin E2 receptor EP4 subtype. In words: Agonist activity at EP4 receptor expressed in HEK293 cells assessed as cAMP accumulation. The class given is functional, cell-based.
Series [6] concerns the target T4, Prostaglandin E2 receptor EP2 subtype. In words: Displacement of [3H]PGE2 from human EP2 receptor expressed in HEK293 cells. Type of series: cell-based.
Series [7] is described as follows: Bioavailability in rat at 1 mg/kg. The class given is ADME, organism-based. Particulars: in vivo.
For another series, the system named is Mus musculus. In words: Induction of ovulation in orally dosed CD1 mouse. Particulars: CD1, po. Type of series: functional.
The nature of series [8]: Clearance in iv dosed rat. The class given is ADME, organism-based. Particulars: in vivo.
Series [9] in a line: Half life in rat. Type of series: ADME, organism-based. Particulars: in vivo.

T2 sequence (P35408 whole entry): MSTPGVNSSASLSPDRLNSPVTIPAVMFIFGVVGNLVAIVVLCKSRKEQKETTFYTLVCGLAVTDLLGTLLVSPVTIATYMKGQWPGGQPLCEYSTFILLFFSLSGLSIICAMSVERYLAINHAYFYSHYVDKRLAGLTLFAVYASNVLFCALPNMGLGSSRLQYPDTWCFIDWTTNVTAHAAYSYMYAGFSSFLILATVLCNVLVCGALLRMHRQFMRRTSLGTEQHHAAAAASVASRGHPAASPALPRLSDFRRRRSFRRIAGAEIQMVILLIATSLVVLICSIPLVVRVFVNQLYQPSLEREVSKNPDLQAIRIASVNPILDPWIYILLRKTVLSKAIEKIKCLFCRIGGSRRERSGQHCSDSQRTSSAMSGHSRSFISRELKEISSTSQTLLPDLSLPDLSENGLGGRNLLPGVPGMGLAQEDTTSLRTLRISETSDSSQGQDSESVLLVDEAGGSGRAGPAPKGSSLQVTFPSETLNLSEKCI

One may read the Ki as the equilibrium dissociation constant of an inhibitor or competing ligand from its target. A high value points to weaker binding. For orientation: EC50 means the concentration that produces a half-maximal response. For `CCCC[C@H](O)/C=C/[C@H]1CCC(=O)N1CCc1ccc(C(=O)O)cc1`, the Ki was 9000 nM in series [1], 2.5 nM in series [2], greater than 10000 nM in series [3] and 126 nM in series [6]. For the same compound, the concentration giving a half-maximal response (EC50) is 16 nM in series [4] and 0.002 nM in series [5].

Turning to `CCCC/C(C)=C/C=C/[C@H]1CCC(=O)N1CCc1ccc(C(=O)O)cc1`, the Ki amounted to 10000 nM in series [1], 181 nM in series [2], 10000 nM in series [3] and 134 nM in series [6]. The EC50 in series [4] is 222 nM; in [5] it was 15 nM.

Regarding `CCCC/C=C(C)/C=C\[C@H]1CCC(=O)N1CCc1ccc(C(=O)O)cc1`, the inhibitory constant (Ki) in series [2] was determined as 443 nM; in [6], 802 nM.

As for `C/C(=C\C=C\[C@H]1CCC(=O)N1CCc1ccc(C(=O)O)cc1)c1ccccc1`, the results for the Ki in series [2] and in [6] were 29 nM and 749 nM, respectively. Besides, the EC50 in [4] is greater than 10000 nM; in series [5] it was 0.5 nM.

In the case of `CC/C(C)=C\C=C\[C@H]1CCC(=O)N1CCc1ccc(C(=O)O)cc1`, the inhibition constant Ki is 24 nM in series [2] and 173 nM in [6]. For the same compound, the concentration giving a half-maximal response (EC50) in series [5] turned out to be 3 nM.

Regarding `C/C(=C/C=C/[C@H]1CCC(=O)N1CCc1ccc(C(=O)O)cc1)CC1CCCC1`, the inhibitory constant (Ki) amounted to 117 nM in [2] and 60 nM in [6].

As to `CCCC/C=C\C=C\[C@H]1CCC(=O)N1CCc1ccc(C(=O)O)cc1`, the values for the Ki in series [2] and in series [6] were 25 nM and 88 nM, respectively. Also, the EC50 came to 197 nM in series [4] and 2 nM in series [5].

Take `CC(C)=C/C=C/[C@H]1CCC(=O)N1CCc1ccc(C(=O)O)cc1`: the inhibition constant (Ki) in series [2] came to 45 nM; in series [6] it was 1850 nM. The half-maximal effective concentration (EC50) in series [5] turned out to be 4 nM.

As to `CCCC/C=C(C)/C=C/[C@H]1CCC(=O)N1CCc1ccc(C(=O)O)cc1`, affinity in series [6] was put at a Ki of 29 nM.

In general, bioavailability refers to the share of a dose that reaches the circulation, judged against a reference dose that is usually intravenous. A low value points to little systemic uptake. In general, ED50 refers to the dose at which the effect has come halfway, by size or by number of responders. Read a high ED50 as weaker potency. A word on the clearance: it is a measure of how efficiently the substance is removed, as volume per time. The term half-life denotes the time needed for the level to fall by half in the phase considered. Lower therefore signals fast loss. The compound `CCCC/C(C)=C\C=C\[C@H]1CCC(=O)N1CCc1ccc(C(=O)O)cc1` registered a bioavailability in series [7] of 72.6%. For the same compound, the inhibitory constant (Ki) was 10000 nM in series [1], 4 nM in series [2], 10000 nM in series [3] and 60 nM in series [6]. In the series on Mus musculus, this compound showed an ED50 of 1 mg/kg. This compound also had a clearance in [8] of 2.5 mL/min/kg. For the same compound, the EC50 in series [4] was 35 nM; in [5] it was 0.1 nM. In series [9], this compound showed a half-life of 7.7 h.
